Source: patent US20130190314A1, “DERIVATIVES OF 6-CYCLOAMINO-2-THIENYL-3-(PYRIDIN-4-YL)IMIDAZO[1,2-b]-PYRIDAZINE AND 6-CYCLOAMINO-2-FURANYL-3-(PYRIDIN-4-YL)IMIDAZO[1,2-b]-PYRIDAZINE, PREPARATION AND THERAPEUTIC USE THEREOF” (priority 2008, published 2013)

Molecular target: T1, casein kinase 1 epsilon (CK1 epsilon) (Homo sapiens, UniProt P49674)
T1 construct: Invitrogen Corporation (alternative)
Test: Filter-plate assay of ATP-33P: inhibition of phosphorylation of casein by CK1 epsilon
Format: biochemical
Details: casein substrate, 10 μM ATP, 2 hours at ambient temperature
Protocol: The capacity of the compounds of the invention to inhibit the phosphorylation of casein by casein kinase 1 epsilon and delta can be evaluated according to the procedure described in document US 2005/0131012.
Filter-Plate Assay of ATP-^33P for the Screening of CK1 Epsilon Inhibitors:
The effect of the compounds on inhibition of the phosphorylation of casein by the enzyme casein kinase 1 epsilon (CK1 epsilon) is measured using a casein assay with filtration of ATP-^33P in vitro.
Casein kinase 1 epsilon (0.58 mg/ml) is obtained via fermentation and purification processes carried out according to methods well known to those skilled in the art, or may also be obtained from Invitrogen Corporation™ (human CK1 epsilon).
The compounds are tested at five different concentrations so as to generate IC50 values, i.e. the concentration at which a compound is capable of inhibiting the enzymatic activity by 50%, or alternatively the % inhibition at a concentration of 10 micromolar.
“U”-bottomed Falcon plates are prepared by placing 5 μl of solutions of the compounds according to the invention at concentrations of 10, 1, 0.1, 0.01 or 0.001 μM in various wells. The solutions of the compounds according to the invention at these various concentrations are prepared by diluting in a test buffer (50 mM Tris, pH 7.5, […], 2 mM DTT and 1 mM EGTA) a stock solution in DMSO at a concentration of 10 mM. Next, 5 μl of dephosphorylated casein are added to a final concentration of 0.2 μg/μl, 20 μl of CK1 epsilon are added to a final concentration of 3 ng/μl, and 20 μl of ATP-^33P are added to a final concentration of 0.02 μCi/μl mixed with cold ATP (10 μM final—approximately 2×10^6 CPM per well). The final total test volume per well is equal to 50 μl.
The “U”-bottomed Falcon® test plate mentioned above is vortexed, and then incubated at ambient temperature for 2 hours. After 2 hours, the reaction is stopped by adding an ice-cold solution of 65 μl of cold ATP (2 mM) prepared in test buffer. 100 μl of the reaction mixture are then transferred from the “U”-bottomed Falcon®plate into Millipore MAPH filter plates, preimpregnated with 25 μl of ice-cold 100% TCA. […]
The plates are left to dry overnight at ambient temperature. […] The radiation emitted by each well is then measured for 2 minutes in a Packard® Topcount NXT scintillation counter, in which the values of CPM/well are measured.
The % inhibition of the capacity of the enzyme to phosphorylate the substrate (casein) is determined for each concentration of compound tested. These inhibition data expressed as percentages are used to calculate the IC50 value for each compound compared with the controls.
The kinetic studies determined the KM value for ATP as being 21 μM in this test system.

T1 sequence (P49674 whole entry): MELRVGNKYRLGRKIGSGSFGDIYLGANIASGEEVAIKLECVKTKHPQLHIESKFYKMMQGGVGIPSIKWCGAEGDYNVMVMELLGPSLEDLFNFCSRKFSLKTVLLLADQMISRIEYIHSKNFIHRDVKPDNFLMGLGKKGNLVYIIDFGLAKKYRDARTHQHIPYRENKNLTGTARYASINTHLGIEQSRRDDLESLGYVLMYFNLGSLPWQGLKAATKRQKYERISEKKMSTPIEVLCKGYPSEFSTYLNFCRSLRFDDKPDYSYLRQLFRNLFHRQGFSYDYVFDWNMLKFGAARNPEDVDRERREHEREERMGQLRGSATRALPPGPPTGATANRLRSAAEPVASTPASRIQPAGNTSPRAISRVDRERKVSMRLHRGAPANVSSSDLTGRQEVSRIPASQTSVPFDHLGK

Row | Compound | IC50
1 | CN1CCN(c2ccc3nc(-c4ccsc4)c(-c4ccncc4)n3n2)CC1 [Compound 18, 6-(4-methylpiperazin-1-yl)-3-(pyridin-4-yl)-2-(thien-3-yl)imidazo[1,2-b]pyridazine] | 25 nM
2 | CN1C[C@@H]2CN(c3ccc4nc(-c5ccoc5)c(-c5ccncc5)n4n3)C[C@@H]2C1 [Compound 34] | 15 nM

System: Mper1-luc Rat-1 (P2C4) fibroblasts
Test: Circadian cell assay: mPer1-promoter luciferase reporter, period prolongation
Format: cell-based
Details: effective concentration that induced a 1-hour prolongation of the circadian period
Protocol: Mper1-luc Rat-1 (P2C4) fibroblast cultures were prepared by dividing the cultures every 3-4 days (approximately 10-20% of confluence) on 150 cm^2 degassed polystyrene tissue culture flasks (Falcon® #35-5001) and maintained in growth medium [EMEM (Cellgro #10-010-CV); 10% foetal bovine serum (FBS; Gibco #16000-044); and 50 I.U./ml of penicillin-streptomycin (Cellgro #30-001-CI)] at 37° C. and under 5% CO2.
Cells obtained from Rat-1 fibroblast cultures at 30-50% of confluence as described above were co-transfected with vectors containing the selectable marker for zeocin resistance for a stable transfection and a luciferase reporter gene controlled by the mPer-1 promoter. After 24 to 48 hours, the cultures were divided on 96-well plates and maintained in growth medium supplemented with 50-100 μg/ml of zeocin (Invitrogen® #45-0430) for 10-14 days. The zeocin-resistant stable transfectants were evaluated for the expression of the reporter gene by adding 100 μM luciferin (Promega® #E1603®) to the growth medium and by assaying the luciferase activity on a TopCount® scintillation counter (Packard Model #C384V00). The Rat-1 cell clones expressing both zeocin resistance and luciferase activity controlled by mPer1 were serum-shock synchronized with 50% horse serum [HS (Gibco® #16050-122)] and the activity of the circadian reporter was evaluated. The P2C4 clone of Mper1-luc Rat-1 fibroblasts was selected to test the compound.
Mper1-luc Rat-1 (P2C4) fibroblasts at 40-50% of confluence, obtained according to the protocol described above, were plated out onto 96-well opaque tissue culture plates (Perkin Elmer® #6005680). The cultures are maintained in growth medium supplemented with 100 μg/mL of zeocin (Invitrogen #45-0430) until they have reached 100% of confluence (48-72 h). The cultures were then synchronized with 100 μl of synchronization medium [EMEM (Cellgro #10-010-CV); 100 I.U./ml of penicillin-streptomycin (Cellgro #30-001-C1); HS at 50% (Gibco #16050-122)] for 2 hours at 37° C. and under 5% CO2. After synchronization, the cultures were rinsed with 100 μl of EMEM (Cellgro #10-010-CV) for 10 minutes at ambient temperature. After rinsing, the medium was replaced with 300 μl of CO2 independent medium [CO2I (Gibco #18045-088); 2 mM L-glutamine (Cellgro #25-005-C1); 100 I.U./ml of penicillin-streptomycin (Cellgro #30-001-C1); 100 μM luciferin (Promega #E 1603)]. […]
The period analysis was performed either by determining the interval between the relative light emission minima over several days or by Fourier transform. […] The data were analysed by adjusting a hyperbolic curve to the data expressed as change of period (Y-axis) as a function of the concentration of the test compound (X-axis) in the XLfit™ software, and the CE Delta (t+1 h) was interpolated from this curve.

Row | Compound | CE Delta (t + 1 h)
3 | CN1CCN(c2ccc3nc(-c4ccsc4)c(-c4ccncc4)n3n2)CC1 [Compound 18, 6-(4-methylpiperazin-1-yl)-3-(pyridin-4-yl)-2-(thien-3-yl)imidazo[1,2-b]pyridazine] | 74 to 83 nM
4 | CN1C[C@@H]2CN(c3ccc4nc(-c5ccoc5)c(-c5ccncc5)n4n3)C[C@@H]2C1 [Compound 34] | 17 nM

System: not given
Test: not given
Details: not given

Row | melting point | Compound
5 | 217 to 220 °C | c1csc(-c2nc3ccc(N4CCNCC4)nn3c2-c2ccncc2)c1 [Compound 1, 6-(piperazin-1-yl)-3-(pyridin-4-yl)-2-(thien-2-yl)imidazo[1,2-b]pyridazine]
6 | 177 to 179 °C | CN1CCN(c2ccc3nc(-c4ccsc4)c(-c4ccncc4)n3n2)CC1 [Compound 18, 6-(4-methylpiperazin-1-yl)-3-(pyridin-4-yl)-2-(thien-3-yl)imidazo[1,2-b]pyridazine]
7 | 178 to 180 °C | CC(C)(O)CN1CCN(c2ccc3nc(-c4ccsc4)c(-c4ccncc4)n3n2)CC1 [Compound 19, 2-methyl-1-[4-(3-(pyridin-4-yl)-2-(thien-3-yl)imidazo[1,2-b]pyridazin-6-yl)piperazin-1-yl]propan-2-ol]
8 | 168 to 170 °C | c1cc(-c2c(-c3ccsc3)nc3ccc(N4CCC(N5CCCC5)CC4)nn23)ccn1 [Compound 23, 3-(pyridin-4-yl)-6-(4-pyrrolidin-1-ylpiperidin-1-yl)-2-(thien-3-yl)imidazo[1,2-b]pyridazine]
9 | 190 to 192 °C | Cc1ccc(-c2nc3ccc(N4CCN(CCO)CC4)nn3c2-c2ccncc2)o1 [Compound 28, 2-{4-[2-(5-methylfuran-2-yl)-3-pyridin-4-ylimidazo[1,2-b]pyridazin-6-yl]piperazin-1-yl}ethanol]
10 | 147 to 149 °C | Cc1ccc(-c2nc3ccc(N4CCN(CC(C)(C)O)CC4)nn3c2-c2ccncc2)o1 [Compound 29, 2-methyl-1-{4-[2-(5-methylfuran-2-yl)-3-pyridin-4-ylimidazo[1,2-b]pyridazin-6-yl]piperazin-1-yl}propan-2-ol]
11 | 139 to 149 °C | CC(C)(O)CN1CCN(c2ccc3nc(-c4ccoc4)c(-c4ccncc4)n3n2)CC1 [Compound 31, 1-[4-(2-furan-3-yl-3-pyridin-4-ylimidazo[1,2-b]pyridazin-6-yl)piperazin-1-yl]-2-methylpropan-2-ol]

Further lines, the compound ahead of its results:

Row | Compound | melting point
12 | c1csc(-c2nc3ccc(N4C[C@H]5CNC[C@H]5C4)nn3c2-c2ccncc2)c1 [Compound 6, 6-[(cis)-hexahydropyrrolo[3,4-c]pyrrol-2(1H)-yl]-3-(pyridin-4-yl)-2-(thien-2-yl)imidazo[1,2-b]pyridazine] | 179 to 183 °C
13 | c1csc(-c2nc3ccc(N4CC5CCCNC5C4)nn3c2-c2ccncc2)c1 (stereo not drawn) [Compound 7, 6-(Octahydro-6H-pyrrolo[3,4-b]pyridin-6-yl)-3-(pyridin-4-yl)-2-(thien-2-yl)imidazo[1,2-b]pyridazine] | 176 to 179 °C
14 | c1csc(-c2nc3ccc(N4CCC5(CCCNC5)CC4)nn3c2-c2ccncc2)c1 [Compound 8, 9-(3-(pyridin-4-yl)-2-(thien-2-yl)imidazo[1,2-b]pyridazin-6-yl)-2,9-diazaspiro[5.5]undecane] | 184 to 189 °C
15 | C[C@@H]1CN(c2ccc3nc(-c4ccc(Cl)s4)c(-c4ccncc4)n3n2)C[C@H](C)N1 [Compound 13, 2-(5-chlorothien-2-yl)-6-[(cis)-3,5-dimethylpiperazin-1-yl]-3-(pyridin-4-yl)imidazo[1,2-b]pyridazine] | 220 to 222 °C
16 | CN1C[C@@H]2CN(c3ccc4nc(-c5ccc(Cl)s5)c(-c5ccncc5)n4n3)C[C@@H]2C1 [Compound 15, 2-(5-chlorothien-2-yl)-6-[(cis)-5-methylhexahydropyrrolo[3,4-c]pyrrol-2(1H)-yl]-3-(pyridin-4-yl)imidazo[1,2-b]pyridazine] | 217 to 220 °C
17 | c1cc(-c2c(-c3ccsc3)nc3ccc(N4CCC5(CCCNC5)CC4)nn23)ccn1 [Compound 22, 9-[3-(pyridin-4-yl)-2-(thien-3-yl)imidazo[1,2-b]pyridazin-6-yl]-2,9-diazaspiro[5.5]undecane] | 133 to 168 °C
18 | Cc1ccc(-c2nc3ccc(N4C[C@H]5CN(C)C[C@H]5C4)nn3c2-c2ccncc2)o1 [Compound 33, 2-(5-Methylfuran-2-yl)-6-[(cis)-5-methylhexahydropyrrolo[3,4-c]pyrrol-2(1H)-yl]-3-(pyridin-4-yl)imidazo[1,2-b]pyridazine] | 178 to 181 °C
